{
  "source": "the NIST ThermoML archive (doi:10.1016/j.tca.2018.05.016)",
  "key": {"[1]": {"assay": "Molar enthalpy of transition or fusion", "settings": "Crystal; DSC"}, "[2]": {"settings": "Crystal; DSC"}},
  "note": "± gives the expanded uncertainty stated by the source.",
  "data": [
    {"smiles": "O=[N+]([O-])[O-].c1cc[nH+]cc1", "note": "[pyridinium nitrate]", "values": [
      {"measurement": "Molar enthalpy of transition or fusion", "setting": "[1]", "value": "4.13 ± 0.148", "unit": "kcal/mol"},
      {"measurement": "Triple point temperature", "setting": "[2]", "value": "390 ± 5", "unit": "K"}
    ]}
  ]
}
